Assay results from patent US20240181015A1, “EFFECT OF GHRH ANTAGONISTS IN DIABETES AND OBESITY” (AUGUSTA UNIVERSITY RESEARCH INSTITUTE, INC., priority 2021, published 2024).
Ends that are not written are not given here.

Columns and labels:
[1] = tested on: C57BL/6 wild type male mice fed on high fat diet (HFD); assay: CLAMS (body weight gain, activity-ambient) in HFD mice treated with AVR-352; assay type: in vivo; settings: HFD 12 weeks, then 25 μg/kg/day subcutaneous for 4 weeks, vs untreated HFD mice
Protocol: 8 to 10-Week old C57BL/6 wild type male mice were fed on a high fat diet (HFD) for 12-weeks. Mice were then treated with the GHRH antagonist AVR-352 (25 μg/kg/day, subcutaneous) or vehicle for 4-weeks. At the end of treatment, mice were placed individually in metabolic (CLAMS) system. Body weight was recorded at beginning of treatment and at time of CLAMS after 4-weeks of treatment with the GHRH antagonist AVR-352 or vehicle. Activity-ambient (counts/day) was also measured.

[2] = tested on: wild type mice fed on high fat diet (HFD); assay: ApoB-48 and MTTP protein content in scrapped small intestine epithelium of HFD mice; assay type: in vivo; settings: 25 μg/kg/day subcutaneous every other day for 4 weeks, vs untreated HFD mice
Protocol: The protein expression of microsomal triglyceride transfer protein (MTTP), an enzyme involved in ApoB-48 lipoprotein assembly, in protein extracts isolated from scrapped epithelium of whole small intestine of mice were evaluated. Densitometric analysis (optical density O.D., fold over Ctrl diet fed mice) of ApoB-48 (FIG. 11B) and MTTP ([…]) corrected by protein loading (vinculin) (FIG. 11A) was performed. Mice fed on HFD were treated with GHRH antagonist AVR-352 (Antago, 25 μg/kg/day, subcutaneous, every other day for 4 weeks).

[3] = tested on: diet-induced obesity (DIO) C57BL/6 mice; assay: Fasting triglyceride levels in diet-induced obesity (DIO) C57BL/6 mice; assay type: in vivo; settings: HFD 24 weeks; 25 μg/kg/day subcutaneous for last 12 weeks; vs untreated HFD mice
Protocol: C57BL/6 mice, 12 weeks of age were fed on a normal control diet (CD) or diet supplemented with high levels of fat (HFD) for 12 weeks, before treatment with GHRH antagonist, AVR-352 (25 μg/kg/day, subcutaneous) or vehicle for 12 weeks. Total triglycerides in plasma (TG ELISA kit, MyBioSource) were measured.

[4] = tested on: wild type mice fed on high fat diet (HFD); assay: Postprandial triglyceride plasma levels after oral lipid loading in high fat diet fed mice; assay type: in vivo; settings: HFD 16 weeks, 25 μg/kg/day subcutaneous every other day for last 4 weeks, up to 2 hours after oral lipid loading
Excerpt: Both 8-week old wild type mice with intact ghrhr gene, and ghrhr conditional knock out mice were fed a high fat or control diet for 16 weeks. The effect of selective deletion of the ghrhr gene in the small intestine versus the effect of the GHRH antagonist AVR-352 or vehicle treatment for the last 4 weeks in wild type mice when both groups were fed a high fat diet, on fasting and postprandial triglyceride plasma levels were compared. The Ghrhr floxed mice using embryonic ES Cells was generated (International Mouse Phenotyping Consortium—IMPC). The ES cell clones were targeted with a floxed allele of Ghrhr with exons 2-5 flanked by loxP sites, and were injected into C57BL/6-Albino blastocysts for chimera production and generation of Ghrhr flox/wt mice (Animal Models Core, UNC, Project ID: Ex231). The colony was expanded and obtained the homozygous Ghrhr flox/flox mice, which were cross bred with mice expressing Cre recombinase in the small intestine (B6.Cg-Tg(Vil1-cre) 1000 Gum/J, Jackson Laboratories). Recombinase activity results in the deletion of loxP flanked targets in the intestine.
Mice with the deletion of GHRH receptor in small intestine epithelium (HOMO) were fed on high fat diet (HFD) or control diet (Ctrl diet) for 16 weeks. AVR-352 (25 μg/kg/day, subcutaneous, every other day), was given to wild type mice after 12 weeks of high fat diet (HFD) for 4 weeks.

[5] = tested on: human small intestine epithelial cells (hulECs); assay: ApoB-48 secretion by huIEC loaded with oleic acid; assay type: cell-based
Protocol: FIG. 14 is a bar graph showing confluent monolayers of human small intestine epithelial cells (hulECs, ATCC) were cultured in 6-well plates and loaded or not with oleic acid after treatments. ApoB-48 was measured in culture supernatants. GHRH agonist JI-34 (1 μM, 1 h) impaired the actions of the GLP-1 receptor agonist exendin 4 (Ex-4, 10 nM, 2 h) on reducing the ApoB48 secretion upon loading hulEC with oleic acid (0.5 mM, 3 h). This effect was completely blunted by co-treatment of cells with the GHRH antagonist MIA-602 (1 μM, 1 h).
FIG. 15 is a bar graph showing confluent monolayers of human small intestine epithelial cells (hulECs, ATCC) were cultured in 6-well plates and loaded or not with oleic acid after treatments. ApoB-48 was measured in culture supernatants.
Confluent monolayers of human small intestine epithelial cells (hulECs, ATCC) were cultured in 6-well plates and were either loaded with oleic acid or not loaded with oleic acid after treatment. ApoB-48 was measured in culture supernatants (MyBioSource).

[6] = tested on: C57BL/6 male mice fed on high fat diet (HFD); assay: CLAMS (food intake, body weight gain, activity-ambient, RER) in HFD mice treated with MIA-602; assay type: in vivo; settings: HFD 24 weeks, 25 μg/kg/day subcutaneous for last 12 weeks
Protocol: 12-Week old C57BL/6 male mice were fed on a high fat diet (HFD) or control diet (CD) for 12-weeks. Mice fed on HFD were treated with the GHRH antagonist MIA-602 (25 μg/kg/day, subcutaneous) or vehicle for 12-weeks. At the end of treatment, mice were placed individually in metabolic (CLAMS) system and a) food intake, b) body weight gain, c) activity-ambient, and d) respiratory exchange ratio were measured.

db/db mice [7] = assay: Fasting plasma triglycerides, ApoB-48 and VLDL (ELISA) in db/db mice treated with MIA-602; assay type: in vivo; settings: fasting state, 25 μg/kg/day subcutaneous every other day for 4 weeks, vs untreated db/db mice
Protocol: Obese 20-week old male diabetic (db/db) mice were treated with the GHRH antagonist MIA-602 (25 μg/kg/day, subcutaneous, every other day) or vehicle (untreated, n=6/group) for 4 weeks. Total triglycerides (mg/dl), ApoB-48-containing lipoproteins (ApoB-48, ng/ml), and very low density lipoprotein (VLDL, mg/dl) in plasma obtained from mice in the fasting state were measured by ELISA (MyBioSource).
Given the high incidence of T2D and obesity and its association with CVD, experiments were carried out to investigate whether GHRH receptor antagonist MIA-602 administered subcutaneous suppresses elevation of TRL in mice homozygous for the diabetes spontaneous mutation Leprdb-BKS db (db/db), a valid model of human T2D/obesity. Heterozygous for Leprdb were used as lean controls.
GHRH antagonist MIA-602 (25 μg/kg/day, subcutaneous, every other day), was given to a sub-group of 20 weeks old db/db mice for 4 weeks. FIGS. 2A-2C show the effect of the treatment with MIA-602 on triglycerides, ApoB-48, and very low density lipoprotein (VLDL) levels, respectively, in db/db mice.

db/db mice [8] = assay: MTTP activity and ApoB-48 protein expression in jejunum protein extracts of db/db mice; assay type: in vivo; settings: protein extracts from jejunum of db/db mice, 25 μg/kg/day s.c.
Protocol: Protein extracts were isolated from jejunum of diabetic (db/db) mice and lean control mice. Microsomal triglyceride transfer protein (MTTP) activity (pmole/μg protein/hour) was measured in protein extracts from diabetic (db/db) mice versus lean control mice treated or not with GHRH antagonist MIA-602. Further, ApoB-48 protein expression determined by densitometric analysis (optical density, O.D.) of ApoB-48 corrected by protein loading (vinculin) was also performed in protein extracts from diabetic (db/db) mice versus lean control mice treated or not with GHRH antagonist MIA-602.

STZ-rats = STZ-rats (T1D model); U.S. Pat. No. 10,201,588; cited from earlier work
[9] = tested on: rat small intestine epithelial cells (IEC); settings: U.S. Pat. No. 10,201,588; cited from earlier work
db/db mice [10] = assay: Fasting blood glucose, HbA1c and glucagon in db/db mice; assay type: in vivo; settings: 25 μg/kg/day subcutaneous for 12 weeks, vs untreated db/db mice
Protocol: Male db/db mice, 12 weeks of age were treated with the GHRH antagonist MIA-602 (25 μg/kg/day, subcutaneous, n=6) or vehicle (untreated, n=6/group) for 12 weeks. Samples were obtained from tail bleeding to determine (A) Fasting blood glucose (AlphaTRAK), (B) HbA1c (Crystal Chem) and (C) Glucagon.

Question: With “5FPhAC-Ada-Tyr-DArg-Asp-Ala-Ile-5FPhe-Thr-Ala-Har-Tyr(Me)-Arg-Lys-Val-Leu-Abu-Gln-Leu-Ser-Ala-Arg-Lys-Leu-Leu-Gln-Asp-Ile-Nle-DArg-Har-Ada-NH2 [AVR-352]” as the substance, how does the “daily activity-ambient, dark cycle” value ([1]; dark cycle) read?
Answer: significantly higher

Question: What about the “daily activity-ambient, light cycle” value ([1]; light cycle) of the same substance?
Answer: no significant differences

Question: What about the “body weight gain (%)” value [1] of the same substance?
Answer: significantly lower

Question: And the “ApoB-48 protein content in small intestine epithelium” value [2]?
Answer: significant reduction

Question: And the “MTTP protein content in small intestine epithelium” value [2]?
Answer: without significantly affecting

Question: What about the “fasting total triglycerides in plasma” value [3] of the same substance?
Answer: significantly reduced

Question: And the “postprandial increase of triglyceride plasma levels” value [4]?
Answer: significantly blunted

Question: Which “ApoB-48 released in the culture medium, different concentrations” value ([5]; different concentrations of native GHRH) does the source give for “GHRH: native growth hormone releasing hormone, the naturally occurring ligand of GHRH receptor (YADAIFTNSYRKVLGQLSARKLLQDIMSRQQGESNQERGARARL; ends and bridges not checked; UniProt P01286 32-75, looked up) [reference compound]” here?
Answer: increased levels of ApoB-48 were released in the culture medium in a dose-dependent manner

Question: For “Tyr-Ala-Asp-Ala-Ile^5-Phe-Thr-Asn-Ser-Tyr^10-Arg-Lys-Val-Leu-Gly^15-Gln-Leu-Ser-Ala-Arg^20-Lys-Leu-Leu-Gln-Asp^25-Ile-Met-Ser-Arg^29-NH2 [MIA-602]”, which “respiratory exchange ratio (RER)” value ([6]; vs non-treated mice) is on record?
Answer: slightly but significantly lower

Question: And the body weight gain ([6]; vs untreated HFD mice)?
Answer: significant reduction

Question: What about the daily activity-ambient ([6]; vs untreated HFD mice) of the same substance?
Answer: significant increase

Question: What about the food intake ([6]; vs untreated HFD mice) of the same substance?
Answer: No changes

Question: And the “ApoB-48-containing lipoproteins in plasma” value (db/db mice [7])?
Answer: significantly reduced

Question: And the “total triglycerides in plasma” value (db/db mice [7])?
Answer: significantly reduced

Question: What about the “very low density lipoprotein (VLDL) in plasma” value (db/db mice [7]) of the same substance?
Answer: significantly reduced

Question: What about the “microsomal triglyceride transfer protein (MTTP) activity” value (db/db mice [8]) of the same substance?
Answer: not associated with significant changes

Question: And the “ApoB-48 levels (densitometry, corrected by vinculin)” value (db/db mice [8]; vs untreated)?
Answer: significantly lower levels

Question: What about the “ApoB-48 lipoproteins in STZ-rats” value (STZ-rats) of the same substance?
Answer: reduced

Question: And the “impaired signaling of Ex-4 in the presence of JI-34 (ApoB-48 secretion)” value ([5]; MIA-602 1 μM, 1 h co-treatment with JI-34 1 μM and Ex-4 10 nM)?
Answer: completely restored

Question: What about the “ApoB-48 lipoproteins in rat IEC in vitro” value [9] of the same substance?
Answer: reduced

Question: What about the “fasting blood glucose level” value (db/db mice [10]) of the same substance?
Answer: modest but significant reduction

Question: And the glucagon levels (db/db mice [10])?
Answer: significant reduction

Question: And the “hemoglobin A1c (HbA1c) level” value (db/db mice [10])?
Answer: modest but significant reduction
